Measurements: patent US4822804A, “5,6,7,-trinor-4,8-inter-m-phenylene 2-nor PGI2 derivatives and anti-ulcer, anti-thrombotic and anti-hypertensive pharmaceutical compositions containing them” (Toray Industries, Inc., priority 1981, dated 1989)
≈ marks a conversion by molar mass, not a printed value.

Tests used:
[1] = test system: gastric juice secretion; experiment: Gastric juice secretion inhibition (Shay's method), subcutaneous; type: in vivo
[2] = Arterial blood pressure of anesthetized rats, intravenous injection; type: in vivo; conditions: rat, i.v., pentobarbital anesthesia
Method: Under pentobarbital anesthesia (50 mg/kg s.c.), a catheter was inserted into the carotid artery. The blood pressure was measured via a pressure transducer on a polygraph.

[3] = test system: platelet rich plasma; experiment: Anti-aggregatory effect in platelet rich plasma (Born's method; arachidonic acid, ADP and collagen); type: cell-based; conditions: PRP of man or rabbit, ADP, collagen
[4] = Diarrhoea inducing action, subcutaneous; type: in vivo; conditions: up to the dose of 3 mg/kg, rat
[5] = test system: Human Platelet; experiment: Human platelet aggregation inhibiting activity (aggregating agent ADP); type: cell-based; conditions: human platelet rich plasma, read-out: ID50, human platelet aggregation inhibiting activity
Method: Blood was collected from healthy volunteers using a disposable syringe containing 3.8% sodium citrate from the saphnous vein. The blood was centrifuged for 10 minutes at 160×g. The resultant supernatant liquid was used as platelet rich plasma (PRP). Aggregation was induced by […] ADP (Adenosine diphosphate). The inhibition rate was calculated against a control aggregation of 100%.
ED50 (effective dose 50) is defined as the dosage required to produce a response in 50% of the subjects to whom the compound is given.

[6] = test system: gastric mucous membrane; experiment: Protection against gastric mucous membrane lesion due to alcohol (Robert's method); type: in vivo; conditions: rat, oral
Method: Gastric cytoprotection was measured according to the method of Robert et al (Gastroenterol 77, 433-443, 1979). The rats fasted overnight and were given a necrotizing agent (0.2N NaOH 1 ml/rat (Method A) or Absolute EtOH (Method B)) and killed one hour later for the examination of gastric lesions. The test drug was administered 30 minutes before the necrotizing agent. The length of the lesion was measured and expressed in terms of the ulcer index. The effect of the drug was expressed in terms of the inhibition rate against the ulcer index of a control animal.

[7] = neutral aqueous solution; cited from earlier work
[8] = as recognized in prostaglandin E1 and E2; cited from earlier work

Compound: 5,6,7-trinor-4,9-inter-m-phenylene-17,18,19,20-tetranor-16-m-chlorophenoxy PGI2 [Compound 65]
- effective dose in inhibiting gastric juice secretion [1]: 0.3 to 1 mg/kg
- effective dose relative to the dose of prostaglandin E2, gastric juice secretion inhibition [1]: 0.1-0.3 times

Compound: CCCC(C)C[C@H](O)/C=C/[C@@H]1[C@H]2c3cccc(CCCC(=O)O)c3O[C@H]2C[C@H]1O (stereo partly drawn) [Compound 48, 5,6,7-trinor-4,8-inter-m-phenylene-17-α-methyl PGI2]
- blood pressure reducing activity relative to prostaglandin E1 [2]: 1-2 times
- duration of blood pressure reducing activity compared with prostaglandin E1 [2]: more prolonged duration
- anti-aggregatory effect compared with prostaglandin E1 [3]: comparable or stronger anti-aggregatory effect
- diarrhoea inducing action [4]: do not exhibit the diarrhoea inducing actions

Compound: CCC[C@H](C)C[C@H](O)/C=C/[C@@H]1[C@H]2c3cccc(CCCC(=O)O)c3O[C@H]2C[C@H]1O [5,6,7-trinor-4,8-inter-m-phenylene-17(S)-methyl PGI2]
- IC50 [5]: 0.005 µg/mL (≈ 0.0124 µM)

Compound: CCCCC(C)C[C@H](O)/C=C/[C@@H]1[C@H]2c3cccc(CCCC(=O)O)c3O[C@H]2C[C@H]1O (stereo partly drawn) [Compound 55, 5,6,7-trinor-4,8-inter-m-phenylene-17-α-methyl-20-homo PGI2]
- blood pressure reducing activity relative to prostaglandin E1 [2]: 1-2 times
- duration of blood pressure reducing activity compared with prostaglandin E1 [2]: more prolonged duration
- anti-aggregatory effect compared with prostaglandin E1 [3]: comparable or stronger anti-aggregatory effect
- diarrhoea inducing action [4]: do not exhibit the diarrhoea inducing actions

Compound: CCOCC(C)(C)[C@H](O)/C=C/[C@@H]1[C@H]2c3cccc(CCCC(=O)O)c3O[C@H]2C[C@H]1O (relative stereo) [Compound 76, 5,6,7-trinor-4,8-inter-m-phenylene-16,16-dimethyl-18,19,20-trinor-17-ethoxyPGI2]
- effective dose relative to the dose of prostaglandin E2, gastric juice secretion inhibition [1]: 0.1-0.3 times
- gastric mucous membrane protecting activity relative to prostaglandin E2 [6]: 0.3-1 times

Compound: CCCCC[C@H](O)/C=C/[C@@H]1[C@H]2C/C(=C/CCCC(=O)O)O[C@H]2C[C@H]1O [PGI2, Prostaglandin I2]
- stability in aqueous solution [7]: very unstable even in a neutral aqueous solution

Compound: CCCCC(C)[C@H](O)/C=C/[C@@H]1[C@H]2c3cccc(CCC(=O)O)c3O[C@H]2C[C@H]1O (stereo partly drawn) [5,6,7-trinor-4,8-inter-m-phenylene-2-nor-16-methyl PGI2]
- IC50 [5]: 0.011 µg/mL (≈ 0.0283 µM)

Compound: CCCCC(C)[C@H](O)/C=C/[C@@H]1[C@H]2c3cccc(CCCC(=O)O)c3O[C@H]2C[C@H]1O (stereo partly drawn) [5,6,7-trinor-4,8-inter-m-phenylene-16-methyl PGI2]
- IC50 [5]: 0.031 µg/mL (≈ 0.077 µM)

Compound: CCCOC[C@H](O)/C=C/[C@@H]1[C@H]2c3cccc(CCC(=O)O)c3O[C@H]2C[C@H]1O (relative stereo) [5,6,7-trinor-4,8-inter-m-phenylene-2,17,18,19,20-pentanor-16-propoxy PGI2]
- IC50 [5]: 0.048 µg/mL (≈ 0.128 µM)

Compound: CCCC(C)CC(O)C=CC1C(O)CC2Oc3c(CCCC(=O)O)cccc3C21 (stereo not drawn) [Compound 49, 5,6,7-trinor-4,8-inter-m-phenylene-17-β-methyl PGI2]
- blood pressure reducing activity relative to prostaglandin E1 [2]: 1-2 times
- duration of blood pressure reducing activity compared with prostaglandin E1 [2]: more prolonged duration
- anti-aggregatory effect compared with prostaglandin E1 [3]: comparable or stronger anti-aggregatory effect
- diarrhoea inducing action [4]: do not exhibit the diarrhoea inducing actions

Compound: CCCCCCC(O)C#CC1C(O)CC2Oc3c(CCCC(=O)O)cccc3C21 (stereo not drawn) [Compound 6, 5,6,7,-trinor-4,8-inter-m-phenylene-13,14-didehydro-20-methyl-PGI2]
- blood pressure reducing activity relative to prostaglandin E1 [2]: 1-2 times
- duration of blood pressure reducing activity compared with prostaglandin E1 [2]: more prolonged duration
- anti-aggregatory effect compared with prostaglandin E1 [3]: comparable or stronger anti-aggregatory effect
- diarrhoea inducing action [4]: do not exhibit the diarrhoea inducing actions

Compound: O=C(O)/C=C/Cc1cccc2c1O[C@H]1C[C@@H](O)[C@H](/C=C/[C@@H](O)c3ccccc3)[C@@H]21 (relative stereo) [Compound 97, 5,6,7-trinor-4,8-inter-m-phenylene-2,3-dehydro-16,17,18,19,20-pentanor-15-phenyl-PGI2]
- blood pressure reducing activity relative to prostaglandin E1 [2]: 1-2 times
- duration of blood pressure reducing activity compared with prostaglandin E1 [2]: more prolonged duration
- anti-aggregatory effect compared with prostaglandin E1 [3]: comparable or stronger anti-aggregatory effect
- effective dose relative to the dose of prostaglandin E2, gastric juice secretion inhibition [1]: 0.1-0.3 times
- diarrhoea inducing action [4]: do not exhibit the diarrhoea inducing actions
- gastric mucous membrane protecting activity relative to prostaglandin E2 [6]: 0.3-1 times

Compound: CCCCC[C@H](O)/C=C/[C@H]1[C@H](O)CC(=O)[C@@H]1C/C=C\CCCC(=O)O [prostaglandin E2]
- diarrhoea inducing action of reference prostaglandins [8]: diarrhoea inducing actions recognized

Compound: O=C(O)CCCc1cccc2c1O[C@H]1C[C@@H](O)[C@H](/C=C/[C@@H](O)COc3ccccc3)[C@@H]21 (relative stereo) [Compound 60, 5,6,7-trinor-4,8-inter-m-phenylene-17,18,19,20-tetranor-16-phenoxy PGI2]
- effective dose relative to the dose of prostaglandin E2, gastric juice secretion inhibition [1]: 0.1-0.3 times

Compound: COC(=O)CCCc1cccc2c1O[C@H]1C[C@@H](O)[C@H](C#CC(O)c3ccccc3)[C@@H]21 (stereo partly drawn) [Compound 19, 5,6,7-trinor-4,8-inter-m-phenylene-13,14-didehydro-15-phenyl-16,17,18,19,20-pentanor PGI2 methyl ester]
- blood pressure reducing activity relative to prostaglandin E1 [2]: 1-2 times
- duration of blood pressure reducing activity compared with prostaglandin E1 [2]: more prolonged duration
- anti-aggregatory effect compared with prostaglandin E1 [3]: comparable or stronger anti-aggregatory effect
- effective dose relative to the dose of prostaglandin E2, gastric juice secretion inhibition [1]: 0.1-0.3 times
- diarrhoea inducing action [4]: do not exhibit the diarrhoea inducing actions
- gastric mucous membrane protecting activity relative to prostaglandin E2 [6]: 0.3-1 times

Compound: CCC[C@H](C)C[C@H](O)/C=C/[C@@H]1[C@H]2c3cccc(CCC(=O)O)c3O[C@H]2C[C@H]1O [5,6,7-trinor-4,8-inter-m-phenylene-2-nor-17(S)-methyl PGI2]
- IC50 [5]: 0.0006 µg/mL (≈ 0.00154 µM)

Compound: O=C(O)CCCc1cccc2c1OC1CC(O)C(C#CC(O)C3CCCCC3)C21 (stereo not drawn) [Compound 9, 5,6,7,-trinor-4,8-inter-m-phenylene-13,14-didehydro-15-cyclohexyl-16,17,18,19,20-pentanor PGI2]
- blood pressure reducing activity relative to prostaglandin E1 [2]: 1-2 times
- duration of blood pressure reducing activity compared with prostaglandin E1 [2]: more prolonged duration
- anti-aggregatory effect compared with prostaglandin E1 [3]: comparable or stronger anti-aggregatory effect
- diarrhoea inducing action [4]: do not exhibit the diarrhoea inducing actions

Compound: CCCOC[C@H](O)/C=C/[C@@H]1[C@H]2c3cccc(CCCC(=O)O)c3O[C@H]2C[C@H]1O (relative stereo) [Compound 66, 5,6,7-trinor-4,8-inter-m-phenylene-17,18,19,20-tertranor-16-propoxy PGI.su b.2]
- IC50 [5]: 0.49 µg/mL (≈ 1.25 µM)
